The results in this text go back to ChEMBL document CHEMBL1127218, “Synthesis, anti-human immunodeficiency virus, and anti-hepatitis B virus activity of pyrimidine oxathiolane nucleosides” (Bioorg Med Chem Lett, 1993).

The nature of assay [1]: Compound was tested for its cytotoxic activity in uninfected human peripheral blood mononuclear (PBM) cells. The assay is classed as functional.
For assay [2], the system named is HepG2. Briefly: Percent inhibition for its anti-HBV activity in infected HepG2(2.2.15) cells at concentration of 25 uM. The assay is classed as functional. The note with it: Homo sapiens.
In a further assay the test system is Vero. Briefly: Compound was tested for its cytotoxic activity in uninfected Vero cells. The assay is classed as functional, cell-based. The following applies: Chlorocebus sabaeus.
A further assay relates to MT4. Briefly: Compound was tested for its anti-HIV activity in acutely infected MT-4 cells. The assay is classed as functional, cell-based. The note with it: Homo sapiens.
Assay [3] is described as follows: Compound was tested for its anti-HIV activity against HIV-1 LAI in human peripheral blood mononuclear (PBM) cells. In kind it is functional.
Assay [4] relates to HepG2. Briefly: Percent inhibition for its anti-HBV activity in infected HepG2(2.2.15) cells at concentration of 1 uM. The assay is classed as functional. The note with it: Homo sapiens.

The structures appear in SMILES notation.

`O=c1[nH]c(=O)n([C@H]2CS[C@@H](CO)O2)cc1F`: the IC50 (in assay [1]; with Vero) was greater than 100 µM throughout. The compound also registered an inhibition at 25 µM with HepG2 [2] of 75%. The concentration for a half-maximal effect (EC50) is greater than 200 µM with MT4 and greater than 100 µM in assay [3].
Regarding `Nc1ccn([C@@H]2CS[C@H](CO)O2)c(=O)n1` [LAMIVUDINE], the IC50 (in assay [1]; in the assay with Vero) was greater than 100 µM throughout. The compound further had an inhibition at 1 µM with HepG2 [4] of 87%. In addition, the EC50 was 7 µM with MT4 and 0.06 µM in assay [3].
Take `Nc1nc(=O)n([C@H]2CS[C@@H](CO)O2)cc1Br`: the IC50 (in assay [1]; with Vero) was greater than 100 µM in each case. The compound further came in with an inhibition at 25 µM in the assay on HepG2 [2] of 84%. Besides, the values for the EC50 (with MT4; in assay [3]) were greater than 200 µM and 2.4 µM, respectively.
On to `Nc1nc(=O)n([C@H]2CS[C@@H](CO)O2)cc1I`, for which the IC50 (in assay [1]; in the assay with Vero) was greater than 100 µM in each case. The inhibition at 25 µM with HepG2 [2] is 55%. Besides, the values for the 50% effective concentration (EC50) (with MT4; in assay [3]) were greater than 200 µM and 0.72 µM, respectively.
Turning to `Nc1nc(=O)n([C@H]2CS[C@@H](CO)O2)cc1Cl`, the half-inhibitory concentration (IC50) (in assay [1]; in the assay with Vero) was greater than 100 µM throughout. Moreover, the inhibition at 25 µM in the assay on HepG2 [2] is 58%. Moreover, the EC50 in the assay on MT4 is greater than 200 µM; in assay [3] it was 38.7 µM.
`Nc1nc(=O)n([C@H]2CS[C@@H](CO)O2)cc1F`: the concentration for half-maximal inhibition (IC50) (in assay [1]; in the assay with Vero) was greater than 100 µM throughout. The same compound yielded an inhibition at 1 µM in the assay on HepG2 [4] of 90%. Further, the EC50 came out at 2.1 µM in the assay with MT4 and 0.01 µM in assay [3].
Turning to `Cc1cn([C@H]2CS[C@@H](CO)O2)c(=O)[nH]c1=O`, the IC50 (in assay [1]; with Vero) was greater than 100 µM each time. Besides, 25 µM produced 0% inhibition in the assay on HepG2 [2]. The EC50 with MT4 is greater than 200 µM; in assay [3] it was 64.4 µM.
On to `O=c1ccn([C@H]2CS[C@@H](CO)O2)c(=O)[nH]1`, for which the IC50 (in assay [1]; in the assay with Vero) was greater than 100 µM in each case. In the assay on HepG2 [2], this compound came in with an inhibition at 25 µM of 0%. Also, the results for the EC50 (in the assay with MT4; in assay [3]) were greater than 200 µM and greater than 100 µM, respectively.
Turning to `O=c1[nH]c(=O)n([C@H]2CS[C@@H](CO)O2)cc1I`, the IC50 (in assay [1]; in the assay on Vero) was greater than 100 µM throughout. The inhibition at 25 µM in the assay on HepG2 [2] came to 0%. Moreover, the results for the EC50 (in the assay with MT4; in assay [3]) were greater than 200 µM and greater than 100 µM, respectively.
On to `Cc1cn([C@H]2CS[C@@H](CO)O2)c(=O)nc1N`, for which the IC50 (in assay [1]; with Vero) was greater than 100 µM throughout. The inhibition at 25 µM in the assay on HepG2 [2] amounted to 0%. Also, the EC50 was greater than 200 µM in the assay with MT4 and greater than 100 µM in assay [3].
For `O=c1[nH]c(=O)n([C@H]2CS[C@@H](CO)O2)cc1Br`, the IC50 (in assay [1]; in the assay with Vero) was greater than 100 µM throughout. In the assay on HepG2 [2], this compound showed an inhibition at 25 µM of 11%. The EC50 in the assay with MT4 was greater than 200 µM; in assay [3], greater than 100 µM.
Regarding `O=c1[nH]c(=O)n([C@H]2CS[C@@H](CO)O2)cc1Cl`, the IC50 (in assay [1]; in the assay with Vero) was greater than 100 µM each time. In addition, the inhibition at 25 µM in the assay on HepG2 [2] was found to be 59%. Besides, the half-maximal effective concentration (EC50) was greater than 200 µM in the assay with MT4 and 60.8 µM in assay [3].

Broadly, the IC50 is the concentration at which inhibition is half-maximal. High values mean weaker potency, low ones greater potency. As usually defined, the inhibition is the drop in the measured response relative to a control, in per cent. As usually defined, the EC50 is the concentration giving half of the maximal effect. Read a high EC50 as a less potent agent.
